# Data taken from patent publication US12257225B2, “Polyoxometalate complexes and pharmaceutical compositions” (Emory University, priority 2016, dated 2025).
# Values joined by “and” are separate entries in the source; they are usually repeats but may differ in a detail not shown here. Equal entries are not always repeated. “Also recorded” adds a separate entry of the source.
# Legend:
# KB-3-1 cancer cell line = assay: Cytotoxicity, cell counting kit-8, KB-3-1; type: cell-based, human; details: KB-3-1 cells, 72 h
# Procedure: (§1) A variety of cancer or normal cells were grown in 96-well plates and treated with VPOA-6 at 0-20 μM for 72 h. Cytotoxicity was measured using cell counting kit-8.
# The effective catalytic oxidation of cellular antioxidants by VPOA-6, led to an assessment of the viability of both cancer and normal cell lines in the presence of VPOA-6. Four VPOA analogues (FIG. 1B) for selectivity of VPOA-6 in killing cancer cells by cytotoxicity towards the fast-growing KB-3-1 cancer cell line.
# (§2) Cell lines used in this study are as follows.
# cancer cells [1] = tested on: cancer cells
# KB-3-1 cancer cells = assay: Apoptosis of KB-3-1 cancer cells; type: cell-based, human
# Procedure: Apoptosis was measured after cancer cells were treated with the drug for 48 hr. […] Cancer cells were cultured with VPOA-6 (5 or 10 μM) with or without NAC (3 mM) for 48 hr before apoptosis measurement.
# KB-CP.5 cancer cells = assay: Apoptosis of cisplatin-resistant KB-CP.5 cancer cells; type: cell-based, human
# Procedure: Apoptosis was measured after cells treated with VPOA-6 at different concentrations for 48 hr. […] NAC rescues the VPOA-6-induced apoptosis in KB-CP.5 cancer cells. Cancer cells were cultured with VPOA-6 (5 or 10 μM) with or without ROS scavenging agent NAC (3 mM) for 48 hr before apoptosis measurement.
# KB-3-1 cells = assay: Total cellular ROS by flow cytometry, KB-3-1; type: cell-based, human
# Description: Transition-metal-based polyoxoanions sometimes have the ability to catalyze a range of oxidation reactions and to generate the free radicals under mild conditions. Although it is not intended that embodiments of this disclosure be limited by any particular mechanism, it is quite reasonable that VPOA-6 may enhance the production or accumulation of reactive oxygen species (ROS) in cancer cells leading to oxidative stress and cell death. To test this hypothesis, the levels of total cellular ROS (H2O2) were measured using flow cytometry. […] To assess the functional importance of ROS induction in the VPOA-6-treated KB-3-1 cells, cells were co-treated with both VPOA-6 (5 and 10 μM) and a ROS scavenger N-acetyl-L-cysteine (NAC, 3 mM).
# [2] = tested on: normal proliferating cells; assay: Selective killing of cancer versus normal proliferating cells; type: cell-based; details: for activity and selectivity, KB-3-1 versus normal cells: simple vanadium compounds
# Procedure: as §1
# The effect of VPOA-6 on the viability of a spectrum of cancer cells and normal proliferating cells were then evaluated. […] In particular, four major types of human cancer cell lines, A549 (lung), U87 (brain), SKOV-3 (ovarian), and KB-3-1 (cervical), are highly sensitive to VPOA-6 with IC50 values below 5 μM.
# KB-CP.5 cancer cell = assay: ROS in drug-resistant KB-CP.5 cells; type: cell-based, human
# [3] = tested on: OVCAR-3, ovarian carcinoma; assay: Cytotoxicity, cell counting kit-8, OVCAR-3; type: cell-based, human; details: OVCAR-3 cells, 72 h
# Procedure: as §1, §2
# [4] = Catalysis of ascorbic acid oxidation; type: biochemical; details: air or peroxide, physiological conditions
# [5] = tested on: KB-8-5, multi-drug resistant cervical carcinoma cell; assay: Cytotoxicity, cell counting kit-8, KB-8-5; type: cell-based, human; details: KB-8-5 cells, 72 h
# Procedure: as §1
# (§3) The high incidence of drug resistance is a major challenge in treatment of relapsed and refractory cancers. […] The resistance of tumor cells to platinum-based chemotherapeutics is known to be associated with increased GSH levels; whereas cancer cells with high GSH levels are frequently more sensitive to drugs that affect GSH43.
# as §2
# [6] = Catalysis of glutathione oxidation monitored by 1H NMR; type: biochemical
# Procedure: GSH (10 mM) in deuterated PBS (1×, pH 7.4) solution at 37° C. in a cell culture incubator. The arrow on the top spectrum indicates the chemical shift of a dominant peak (absent here) in the oxidation product (GSSG).
# Vanadium-containing compounds have extensive redox properties and consequently catalyze several organic substrate oxidations via free radical mechanisms. VPOA-6 is a highly efficient catalyst for oxidizing glutathione (GSH), the primary intracellular antioxidant, through both aerobic oxidation and peroxidation under physiologically relevant conditions. Glutathione is the most abundant cellular reducing metabolite with concentrations in the millimolar range and is regarded as the primary mechanism for protecting cells against oxidative stress during proliferation and growth. In order to evaluate the inherent catalytic capability of VPOA-6, proton nuclear magnetic resonance (1H NMR) spectroscopy was used to monitor the in vitro oxidation of GSH. Two reactions were designed for this purpose, GSH reacting with air (O2) and, separately, GSH reacting with peroxide (H2O2) in PBS buffer (1×pH 7.4) at 37° C.
# [7] = tested on: human embryonic kidney HEK 293; type: cell-based
# Procedure: as §1
# One aspect of selectivity is the efficacy ratio of a therapeutic agent for normal cells versus cancer cells.
# as §2
# [8] = tested on: SKOV-3, ovarian carcinoma cell; assay: Cytotoxicity, cell counting kit-8, SKOV-3; type: cell-based, human; details: SKOV-3 cells, 72 h
# Procedure: as §1, §2
# [9] = Side effects in treated tumor-bearing mice; type: in vivo
# Description: Mice were then euthanized, vital organs collected and processed for histological examination.
# [10] = tested on: KB-CP.5, cisplatin-resistant cervical carcinoma cell; assay: Cytotoxicity, cell counting kit-8, KB-CP.5; type: cell-based, human
# Procedure: as §1, §3, §2
# [11] = tested on: D556, medulloblastoma cell; assay: Cytotoxicity, cell counting kit-8, D556; type: cell-based; details: D556 cells, 72 h
# Procedure: as §1, §2
# cancer cells [12] = assay: TUNEL and Annexin V-PE staining assays; type: cell-based; details: normal proliferating cells remain alive
# Procedure: (§4) One aspect of selectivity is the efficacy ratio of a therapeutic agent for normal cells versus cancer cells. In sharp contrast to cancer cells, human embryonic kidney HEK 293, human lung MRC-5, and human bronchus BEAS-2B normal cells are viable at VPOA-6 concentrations up to 20 μM. […] A fluorescent-labeling technique successfully images the uptake of VPOA-6 into living cells showing that cancer cells readily internalize this nanodrug within 8 hr even at very low concentrations (1 μM).
# [13] = tested on: NCI-H460, large cell lung carcinoma; assay: Cytotoxicity, cell counting kit-8, NCI-H460; type: cell-based, human; details: NCI-H460 cells, 72 h
# Procedure: as §1, §2
# [14] = tested on: KB-3-1 human cervical carcinoma; assay: KB-3-1 xenograft mouse model, antitumor efficacy; type: in vivo, mice; details: for tumor inhibition effect: 16 μmol/kg i.p.
# Description: In vivo antitumor effect of VPOA-6. Inhibition of human head-and-neck KB-3-1 tumor growth by VPOA-6 treatment in tumor-bearing mice. […] Mice were then euthanized, vital organs collected and processed for histological examination.
# Human cervical cancer is one of the most aggressive forms of human cancer. […] Specifically when using i.p. administration, the tumor volume of VPOA-6-treated group at a dose of 40 μmol/kg was less than 40% of that control group at the end point. […] Evaluation of VPOA-6 side effects. A central issue in developing new chemotherapeutics is to minimize the side effects associated with the non-specific interaction of the drugs with normal organ tissues.
# cancer cells [15] = assay: Uptake into living cells by fluorescent labeling; type: cell-based; details: 1 μM
# Procedure: as §4
# [16] = pH 7.4
compound,measurement,setting,value
"CCCC[N+](CCCC)(CCCC)CCCC [TBA Cl, reference compound]",IC50,KB-3-1 cancer cell line,289 ± 12 µM
[V6O13{(OCH2)3CNO2}2] [VPOA-NO2],IC50,KB-3-1 cancer cell line,13.7 ± 0.15 µM
[V6O13{(OCH2)3CCH2OH}2] [VPOA-OH],IC50,KB-3-1 cancer cell line,21 ± 1.47 µM
OO [hydrogen peroxide],interaction with VPOA-6 in killing cancer cells,cancer cells [1],acted synergistically with VPOA-6
"CC(=O)N[C@@H](CS)C(=O)O [NAC, N-acetyl-L-cysteine, reference compound]",effect of NAC on VPOA-6-induced apoptosis,"KB-3-1 cancer cells; KB-3-1, VPOA-6 5 or 10 μM, NAC 3 mM, 48 hr",rescues
same,effect of NAC on VPOA-6-induced apoptosis,"KB-CP.5 cancer cells; KB-CP.5, VPOA-6 5 or 10 μM, NAC 3 mM, 48 hr",rescues
same,effect of NAC on ROS and cell killing by VPOA-6,"KB-3-1 cells; KB-3-1, VPOA-6 5 and 10 μM, NAC 3 mM",reduces ROS and the cell killing by VPOA-6
[Na+].[O]=[V](=[O])[O-] [NaVO3],"activity and selectivity, KB-3-1 versus normal cells",[2],active but nonselective
[O]=[V](=[O])[O][V](=[O])=[O] [V2O5],"activity and selectivity, KB-3-1 versus normal cells",[2],active but nonselective
[V6O13{(OCH2)3CNH3}2] [VPOA-6],apoptosis,"KB-3-1 cancer cells; KB-3-1, 48 hr",Dose-dependent apoptosis
same,apoptosis,KB-CP.5 cancer cells; KB-CP.5,remarkable apoptosis
same,IC50,KB-3-1 cancer cell line,3.45 µM and < 5 µM
same,ROS levels,KB-CP.5 cancer cell,dramatic ROS increase
same,IC50,[3],10.8 ± 0.49 µM
same,catalysis of ascorbic acid oxidation,[4],efficiently catalyzes ascorbic acid oxidation
same,IC50,[5],3.7 µM
same,product of GSH oxidation,"[6]; H2O2, PBS pH 7.4, 37° C., after 30 minutes","over-oxidized product, GS(═O)SG"
same,time for conversion of GSH to GSSG,"[6]; air, GSH 10 mM, PBS pH 7.4, 37° C.",≤ 30 min
same,ROS and apoptosis in normal cells,normal cells,ROS increase but did not show obvious apoptosis
same,toxicity in cell viability studies,[7],much less so
same,IC50,[8],3.12 ± 0.05 µM
same,nephrotoxicity,"[9]; mouse, in vivo",not observed
same,IC50,"[10]; KB-CP.5 cells, 72 h",5.53 µM
same,IC50,[11],7.36 ± 0.54 µM
same,ROS levels,"KB-3-1 cells; KB-3-1, 5 and 10 μM, versus non-treated cells",significant surge in ROS levels
same,apoptosis by TUNEL and Annexin V-PE staining,cancer cells [12],dramatic apoptosis of the cancer cells
same,IC50,[13],8.69 ± 0.91 µM
same,tumor inhibition effect,[14]; weekly for 24 days,clearly demonstrated the antitumor effect
same,tumor volume relative to control group at the end point,"[14]; 40 μmol/kg i.p., weekly for 24 days",less than 40%
same,"tumor growth inhibition, overall","[14]; i.p. or i.v., KB-3-1 xenografted mice",significantly inhibits growth; also recorded: quite effective
same,tumor inhibition,[14]; i.v. administration,more significant tumor inhibition
same,time to internalization by cancer cells,cancer cells [15],≤ 8 h
same,stability,[16],stable
same,selective killing: cytotoxicity in cancer versus normal proliferating cells,"[2]; 0-20 μM, 72 h",no cytotoxicity in normal proliferating cells; also recorded: induces cell death in cancer cells (Tumor) but not in normal proliferating cells (Normal)
"N.N.[Cl][Pt][Cl] [cisplatin, reference compound]",IC50,KB-3-1 cancer cell line,2.8 µM
same,IC50,[8],4.4 µM
same,mortality,[9]; increased dosages,widespread death
same,health and body weight of treated mice,[9]; treatment period,deteriorated health and severe body weight loss
same,resistance of KB-CP.5 compared to parental KB-3-1,[10]; KB-CP.5 versus KB-3-1,ca. 40 fold
same,tumor inhibition effect,[14]; weekly for 24 days,did not exhibit any tumor inhibition effect
[V6O13{(OCH2)3CCH3}2] [VPOA-CH3],IC50,KB-3-1 cancer cell line,16.21 ± 0.08 µM
[Na+].[Na+].[Na+].[O]=[V]([O-])([O-])[O-] [Na3VO4],"activity and selectivity, KB-3-1 versus normal cells",[2],active but nonselective
